We go through 33 compounds from patent publication US8501946B2 (Glaxo Group Limited, priority 2009, dated 2013).

For this test, the target named is T1, human recombinant P2X7 receptors (Homo sapiens, UniProt Q99572).
T1 construct: expressed in transfected cells
T1 sequence (Q99572 1-595): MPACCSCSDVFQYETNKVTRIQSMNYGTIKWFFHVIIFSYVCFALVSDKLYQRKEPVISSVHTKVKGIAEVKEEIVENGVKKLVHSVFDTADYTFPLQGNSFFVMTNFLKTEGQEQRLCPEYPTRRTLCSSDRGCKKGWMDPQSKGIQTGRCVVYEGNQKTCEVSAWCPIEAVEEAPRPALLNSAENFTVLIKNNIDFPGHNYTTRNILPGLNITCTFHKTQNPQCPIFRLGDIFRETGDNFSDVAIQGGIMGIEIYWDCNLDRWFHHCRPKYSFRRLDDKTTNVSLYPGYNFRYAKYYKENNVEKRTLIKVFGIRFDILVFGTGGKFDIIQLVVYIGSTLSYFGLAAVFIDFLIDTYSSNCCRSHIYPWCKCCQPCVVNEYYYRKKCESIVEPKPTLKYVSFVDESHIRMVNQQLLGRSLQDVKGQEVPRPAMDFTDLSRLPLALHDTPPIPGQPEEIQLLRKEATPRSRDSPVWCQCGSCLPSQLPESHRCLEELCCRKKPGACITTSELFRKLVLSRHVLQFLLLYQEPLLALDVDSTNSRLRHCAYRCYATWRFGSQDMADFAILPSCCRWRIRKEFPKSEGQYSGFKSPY
The experiment in a line: Ethidium Accumulation Assay 1 (HEK293 cells, ATP-induced ethidium uptake). The format is cell-based. Conditions: HEK293 cells expressing human P2X7; 1 mM ATP; sometimes mean of more than one measurement; read-out: Assay 1 (antagonist pIC50 for blocking ATP responses) (converted).

In the case of `O=C(c1ccc(Cl)cc1C(F)(F)F)N1CCn2c(nnc2-c2cnccn2)C1` [Example 142, 7-{[4-chloro-2-(trifluoromethyl)phenyl]carbonyl}-3-(2-pyrazinyl)-5,6,7,8-tetrahydro[1,2,4]triazolo[4,3-a]pyrazine], the IC50 was less than 100 nM.

`O=C(c1cccc(C(F)(F)F)c1Cl)N1CCn2c(Br)nnc2C1` [Example 1, 3-Bromo-7-{[2-chloro-3-(trifluoromethyl)phenyl]carbonyl}-5,6,7,8-tetrahydro[1,2,4]triazolo[4,3-a]pyrazine]: the IC50 is less than 10 nM.

For the compound `O=C(c1cccc(F)c1F)N1CCn2c(nnc2-c2ccccn2)C1` [Example 88, 7-[(2,3-difluorophenyl)carbonyl]-3-(2-pyridinyl)-5,6,7,8-tetrahydro[1,2,4]triazolo [4,3-a]pyrazine], the IC50 is less than 100 nM.

On to `O=C(c1ccc(F)cc1Cl)N1CCn2c(nnc2-c2cnc(Cl)cn2)C1` [Example 141, 7-[(2-Chloro-4-fluorophenyl)carbonyl]-3-(5-chloro-2-pyrazinyl)-5,6,7,8-tetrahydro[1,2,4]triazolo[4,3-a]pyrazine], for which the IC50 is less than 501 nM.

With `O=C(c1cccc(Cl)c1Cl)N1CCn2c(nnc2-c2ccc(F)cc2)C1` [Example 99, 7-[(2,3-dichlorophenyl)carbonyl]-3-(4-fluorophenyl)-5,6,7,8-tetrahydro[1,2,4]triazolo [4,3-a]pyrazine], the IC50 is less than 10 nM.

With `O=C(c1ccc(Cl)cc1Cl)N1CCn2c(nnc2-c2cnccn2)C1` [Example 92, 7-[(2,4-dichlorophenyl)carbonyl]-3-(2-pyrazinyl)-5,6,7,8-tetrahydro[1,2,4]triazolo[4,3-a]pyrazine], the IC50 was less than 10 nM.

With `Cn1ccc(-c2nnc3n2CCN(C(=O)c2ccc(F)cc2Cl)C3)n1` [Example 72, 7-[(2-chloro-4-fluorophenyl)carbonyl]-3-(1-methyl-1H-pyrazol-3-yl)-5,6,7,8-tetrahydro[1,2,4]triazolo [4,3-a]pyrazine], the IC50 is less than 100 nM.

Consider `O=C(c1ccc(Cl)c(F)c1Cl)N1CCn2c(nnc2-c2ccc(F)cn2)C1` [Example 110, 7-[(2,4-Dichloro-3-fluorophenyl)carbonyl]-3-(5-fluoro-2-pyridinyl)-5,6,7,8-tetrahydro[1,2,4]triazolo[4,3-a]pyrazine], for which the IC50 is less than 10 nM.

For `O=C(c1cccc(C(F)(F)F)c1Cl)N1CCn2c(nnc2-c2ccncn2)C1` [Example 12, 7-{[2-chloro-3-(trifluoromethyl)phenyl]carbonyl}-3-(4-pyrimidinyl)-5,6,7,8-tetrahydro[1,2,4]triazolo[4,3-a]pyrazine], the IC50 was less than 100 nM.

As to `Cn1cccc1-c1nnc2n1CCN(C(=O)c1ccc(F)cc1Cl)C2` [Example 82, -[(2-chloro-4-fluorophenyl)carbonyl]-3-(1-methyl-1H-pyrrol-2-yl)-5,6,7,8-tetrahydro[1,2,4]triazolo [4,3-a]pyrazine], the IC50 is less than 100 nM.

In the case of `COc1ccccc1-c1nnc2n1CCN(C(=O)c1ccc(F)cc1Cl)C2` [Example 127, 7-[(2-chloro-4-fluorophenyl)carbonyl]-3-[2-(methyloxy)phenyl]-5,6,7,8-tetrahydro[1,2,4]triazolo[4,3-a]pyrazine], the IC50 is less than 501 nM.

In the case of `O=C(c1cccc(C(F)(F)F)c1Cl)N1CCn2c(nnc2-c2cscn2)C1` [Example 42, 7-{[2-chloro-3-(trifluoromethyl)phenyl]carbonyl}-3-(1,3-thiazol-4-yl)-5,6,7,8-tetrahydro[1,2,4]triazolo[4,3-a]pyrazine], the IC50 is less than 10 nM.

On to `O=C(c1cccc(C(F)(F)F)c1Cl)N1CCn2c(nnc2-c2ccncc2)C1` [Example 10, 7-{[2-Chloro-3-(trifluoromethyl)phenyl]carbonyl}-3-(4-pyridinyl)-5,6,7,8-tetrahydro[1,2,4]triazolo[4,3-a]pyrazine], for which the IC50 was less than 100 nM.

Take `O=C(c1ccc(F)cc1Cl)N1CCn2c(nnc2-c2ccccn2)C1` [Example 37, 7-[(2-chloro-4-fluorophenyl)carbonyl]-3-(2-pyridinyl)-5,6,7,8-tetrahydro[1,2,4]triazolo [4,3-a]pyrazine]: the IC50 is less than 10 nM.

For `Cc1ccc(-c2nnc3n2CCN(C(=O)c2cccc(Cl)c2Cl)C3)nc1` [Example 60, 7-[(2,3-dichlorophenyl)carbonyl]-3-(5-methyl-2-pyridinyl)-5,6,7,8-tetrahydro[1,2,4]triazolo [4,3-a]pyrazine], the IC50 is less than 100 nM.

As for `O=C(c1ccc(Cl)cc1Cl)N1CCn2c(nnc2-c2ccccn2)C1` [Example 76, 7-[(2,4-dichlorophenyl)carbonyl]-3-(2-pyridinyl)-5,6,7,8-tetrahydro[1,2,4]triazolo [4,3-a]pyrazine], the IC50 is less than 10 nM.

For the compound `O=C(c1ccccc1Cl)N1CCn2c(nnc2-c2ccc(F)cc2)C1` [Example 119, 7-[(2-chlorophenyl)carbonyl]-3-(4-fluorophenyl)-5,6,7,8-tetrahydro[1,2,4]triazolo[4,3-a]pyrazine], the IC50 is less than 100 nM.

As to `O=C(c1cccc(C(F)(F)F)c1Cl)N1CCn2c(nnc2N2CCC2)C1` [Example 22, 3-(1-azetidinyl)-7-{[2-chloro-3-(trifluoromethyl)phenyl]carbonyl}-5,6,7,8-tetrahydro[1,2,4]triazolo [4,3-a]pyrazine], the IC50 was less than 100 nM.

Turning to `O=C(c1c(Cl)cc(Cl)cc1Cl)N1CCn2c(Br)nnc2C1` [Example 8, 3-bromo-7-[(2,4,6-trichlorophenyl)carbonyl]-5,6,7,8-tetrahydro[1,2,4]triazolo [4,3-a]pyrazine], the IC50 is less than 501 nM.

On to `O=C(c1cccc(Cl)c1Cl)N1CCn2c(nnc2-c2ccccc2)C1` [Example 70, 7-[(2,3-dichlorophenyl)carbonyl]-3-phenyl-5,6,7,8-tetrahydro[1,2,4]triazolo [4,3-a]pyrazine], for which the IC50 was less than 10 nM.

For `O=C(c1cccc(C(F)(F)F)c1)N1CCn2c(nnc2-c2ccccn2)C1` [Example 86], the IC50 is less than 100 nM.

With `O=C(c1cccc(Cl)c1Cl)N1CCn2c(nnc2-c2ccncn2)C1` [Example 62, 7-[(2,3-dichlorophenyl)carbonyl]-3-(4-pyrimdiinyl)-5,6,7,8-tetrahydro[1,2,4]triazolo [4,3-a]pyrazine], the IC50 was less than 10 nM.

Turning to `O=C(c1ccc(F)cc1Cl)N1CCn2c(nnc2-c2cccc(F)n2)C1` [Example 41, 7-[(2-chloro-4-fluorophenyl)carbonyl]-3-(6-fluoro-2-pyridinyl)-5,6,7,8-tetrahydro[1,2,4]triazolo [4,3-a]pyrazine], the IC50 was less than 501 nM.

Turning to `O=C(c1ccc(F)cc1Cl)N1CCn2c(nnc2-c2ncc(F)cc2F)C1` [Example 84, 7-[(2-chloro-4-fluorophenyl)carbonyl]-3-(3,5-difluoro-2-pyridinyl)-5,6,7,8-tetrahydro[1,2,4]triazolo [4,3-a]pyrazine], the IC50 was less than 100 nM.

For the compound `O=C(c1ccccc1Cl)N1CCn2c(nnc2-c2ccccn2)C1` [Example 75, 7-[(2-chlorophenyl)carbonyl]-3-(2-pyridinyl)-5,6,7,8-tetrahydro[1,2,4]triazolo [4,3-a]pyrazine], the IC50 was less than 100 nM.

In the case of `O=C(c1ccc(F)cc1Cl)N1CCn2c(nnc2-c2cccc(F)c2)C1` [Example 123, 7-[(2-chloro-4-fluorophenyl)carbonyl]-3-(3-fluorophenyl)-5,6,7,8-tetrahydro[1,2,4]triazolo[4,3-a]pyrazine], the IC50 is less than 100 nM.

Consider `O=C(c1cccc(Cl)c1Cl)N1CCn2c(nnc2-c2cccnc2)C1` [Example 61, 7-[(2,3-dichlorophenyl)carbonyl]-3-(3-pyridinyl)-5,6,7,8-tetrahydro[1,2,4]triazolo [4,3-a]pyrazine], for which the IC50 was less than 10 nM.

For the compound `O=C(c1ccc(Cl)cc1Cl)N1CCn2c(nnc2-c2ncccc2F)C1` [Example 93], the IC50 is less than 100 nM.

Turning to `O=C(c1cccc(Cl)c1Cl)N1CCn2c(nnc2-c2ccc(F)cn2)C1` [Example 54, 7-[(2,3-dichlorophenyl)carbonyl]-3-(5-fluoro-2-pyridinyl)-5,6,7,8-tetrahydro[1,2,4]triazolo [4,3-a]pyrazine], the IC50 is less than 10 nM.

Regarding `CN(C)c1nnc2n1CCN(C(=O)c1cccc(C(F)(F)F)c1Cl)C2` [Example 20, 7-{[2-chloro-3-(trifluoromethyl)phenyl]carbonyl}-N,N-dimethyl-5,6,7,8-tetrahydro[1,2,4]triazolo [4,3-a]pyrazine-3-amine], the IC50 was less than 100 nM.

In the case of `O=C(c1ccc(F)c(Cl)c1)N1CCn2c(nnc2-c2cnccn2)C1` [Example 105, 7-[(3-chloro-4-fluorophenyl)carbonyl]-3-(2-pyrazinyl)-5,6,7,8-tetrahydro[1,2,4]triazolo [4,3-a]pyrazine], the IC50 was less than 100 nM.

Consider `Cc1cccnc1-c1nnc2n1CCN(C(=O)c1ccc(F)cc1Cl)C2` [Example 32, 7-[(2-chloro-4-fluorophenyl)carbonyl]-3-(3-methyl-2-pyridinyl)-5,6,7,8-tetrahydro[1,2,4]triazolo[4,3-a]pyrazine], for which the IC50 is less than 100 nM.

Consider `O=C(c1cccc(C(F)(F)F)c1Cl)N1CCn2c(nnc2-c2ccccc2O)C1` [Example 138, 2-(7-{[2-chloro-3-(trifluoromethyl)phenyl]carbonyl}-5,6,7,8-tetrahydro[1,2,4]triazolo[4,3-a]pyrazin-3-yl)phenol], for which the IC50 was less than 10 nM.
